Results from patent US8759295B2, “Peptide-peptidase inhibitor conjugates and methods of using same” (Amylin Pharmaceuticals, LLC, priority 2006, dated 2014).
pIC50: −log10 of the molar value.

Biological target: T1, ACE from rabbit lung (Oryctolagus cuniculus, UniProt P12822)
T1 construct: ACE from rabbit lung, Sigma Chemical Co., St. Louis, Mo; purchased Sigma Chemical Co., St. Louis, Mo; host or cells: rabbit lung (tissue-derived enzyme)
T1 sequence (P12822 34-1310): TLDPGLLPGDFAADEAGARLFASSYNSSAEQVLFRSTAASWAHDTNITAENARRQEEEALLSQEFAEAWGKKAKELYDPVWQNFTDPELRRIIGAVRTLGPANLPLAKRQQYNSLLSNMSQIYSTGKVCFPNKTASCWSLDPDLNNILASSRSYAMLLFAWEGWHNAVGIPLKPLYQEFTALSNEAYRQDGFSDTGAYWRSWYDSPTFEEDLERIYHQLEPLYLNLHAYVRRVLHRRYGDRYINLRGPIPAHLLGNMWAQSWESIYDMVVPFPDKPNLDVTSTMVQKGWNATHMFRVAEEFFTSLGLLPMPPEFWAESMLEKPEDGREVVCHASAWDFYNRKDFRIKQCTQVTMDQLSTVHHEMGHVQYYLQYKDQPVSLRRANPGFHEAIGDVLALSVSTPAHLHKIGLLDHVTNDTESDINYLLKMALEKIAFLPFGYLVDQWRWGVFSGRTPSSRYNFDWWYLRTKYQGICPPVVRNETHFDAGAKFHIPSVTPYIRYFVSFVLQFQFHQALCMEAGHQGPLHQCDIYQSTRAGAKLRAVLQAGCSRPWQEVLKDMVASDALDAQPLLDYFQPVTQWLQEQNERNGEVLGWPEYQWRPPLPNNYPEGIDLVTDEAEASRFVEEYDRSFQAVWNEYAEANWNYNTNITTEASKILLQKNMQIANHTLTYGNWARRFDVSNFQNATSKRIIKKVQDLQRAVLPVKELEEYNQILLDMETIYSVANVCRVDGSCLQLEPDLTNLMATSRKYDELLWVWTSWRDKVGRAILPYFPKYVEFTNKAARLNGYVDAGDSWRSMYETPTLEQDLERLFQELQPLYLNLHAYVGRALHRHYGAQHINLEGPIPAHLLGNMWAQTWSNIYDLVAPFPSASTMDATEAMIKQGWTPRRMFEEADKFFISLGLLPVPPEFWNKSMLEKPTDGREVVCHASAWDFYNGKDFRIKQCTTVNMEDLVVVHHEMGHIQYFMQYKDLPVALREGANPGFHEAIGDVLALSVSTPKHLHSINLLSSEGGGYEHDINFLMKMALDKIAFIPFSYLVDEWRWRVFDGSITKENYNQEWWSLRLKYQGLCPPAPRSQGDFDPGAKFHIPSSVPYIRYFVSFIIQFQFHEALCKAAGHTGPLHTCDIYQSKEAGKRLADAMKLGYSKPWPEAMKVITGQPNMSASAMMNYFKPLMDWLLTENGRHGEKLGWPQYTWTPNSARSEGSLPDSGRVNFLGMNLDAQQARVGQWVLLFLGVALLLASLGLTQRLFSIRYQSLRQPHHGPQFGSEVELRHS
Assay: ACE inhibition assay
Type: biochemical
Description: Peptide-ACE peptidase inhibitor conjugate compounds were assessed in an ACE inhibition assay using purified ACE enzyme and chromogenic substrates. An ACE stock solution was prepared by dissolving 0.1 unit of enzyme (ACE from rabbit lung, Sigma Chemical Co., St. Louis, Mo.) in 0.640 mL of HEPES buffer (0.1 M, pH=8). A 2 mM stock solution of substrate (N-benzyloxycarbonyl-Phe-His-Leu-OH) dissolved in methanol. The ACE inhibitor compounds were dissolved in phosphate buffer (0.1 M, pH=8) at concentrations of 0.0, 1, 10, 20, 60 and 100 μM. For the inhibition assay, six 2 mL microcentrifuge tubes were prepared containing 1.45 mL of phosphate buffer pH=8, 0.05 mL of 10% NaCl and 0.015 mL of substrate solution. To each microcentrifuge tube was added 0.015 mL of one of the ACE inhibitor compound's stock solutions. The solutions were heated at 37° C. for about 5 minutes. […] Initial rates were determined from linear portions of product release curves. […] Apparent binding constants (Kd^app or Ki^app) of inhibitors to ACE were determined by fitting inhibition curves (initial rate vs. inhibitor concentration) to equation:
[formula] where v0 is reaction rate in the absence of inhibitor and [I]—inhibitor concentration. Fits were done by least-squares method using KaleidaGraph 3.6 (Synergy Software, Reading Pa.).

In the case of CC[C@H](C)[C@H](NC(=O)[C@H](Cc1ccccc1)NC(=O)[C@H](CCC(=O)O)NC(=O)[C@H](CCCCN)NC(=O)[C@H](C)NC(=O)[C@H](C)NC(=O)[C@H](CCC(N)=O)NC(=O)CNC(=O)[C@H](CCC(=O)O)NC(=O)[C@H](CC(C)C)NC(=O)[C@H](Cc1ccc(O)cc1)NC(=O)[C@H](CO)NC(=O)[C@H](CO)NC(=O)[C@@H](NC(=O)[C@H](CC(=O)O)NC(=O)[C@H](CO)NC(=O)[C@@H](NC(=O)[C@H](Cc1ccccc1)NC(=O)[C@@H](NC(=O)CNC(=O)[C@H](CCC(=O)O)NC(=O)[C@H](C)NC(=O)[C@@H](N)Cc1c[nH]cn1)[C@@H](C)O)[C@@H](C)O)C(C)C)C(=O)N[C@@H](C)C(=O)N[C@@H](Cc1c[nH]c2ccccc12)C(=O)N[C@@H](CC(C)C)C(=O)N[C@H](C(=O)N[C@@H](CCCCN)C(=O)NCC(=O)N[C@@H](CCCNC(=N)N)C(=O)NCC(=O)NCCCC(=O)NCCCC[C@H](NC(=O)[C@@H]1CCC(=O)N1)C(=O)N[C@@H](Cc1c[nH]c2ccccc12)C(=O)N[C@@H](C)C(=O)N1CCC[C@H]1C(=O)O)C(C)C [3633/38, GLP-1-(7-37)-γ-Abu-N^ε2Lys-(Pyr)-WAP-OH], the pIC50 was < 5.00.
